Article PMC5800941 (Biochemistry, 2017)
Entries after “also recorded” stand apart in the source; their conditions may differ.

Assays:
CYP3A4 = CYP3A4 (Homo sapiens, UniProt P08684, S18F); test: Substrate binding to CYP3A4 in Nanodiscs: UV-Vis spectral titration; conditions: human, recombinant CYP3A4 in POPC Nanodiscs
CYP3A4 in POPC Nanodiscs [1] = target: T1, CYP3A4 in POPC Nanodiscs (Homo sapiens, UniProt P08684, S18F); test: as above; conditions: for Fe^3+ Spin shift (fraction of high spin): 37 C
CYP3A4 in POPC Nanodiscs [2] = target: T1, CYP3A4 in POPC Nanodiscs; test: Product formation; assay type: biochemical; conditions: binding intermediate with 1 substrate molecule bound; 37 C, pH 7.4
CYP3A4 in POPC Nanodiscs [3] = target: T1, CYP3A4 in POPC Nanodiscs; assay type: biochemical; conditions: mixture of ARVL and DND at constant molar ratio 2.9:1; one of each substrate bound

Row | Kd (CYP3A4) [µM] | Kd (CYP3A4 in POPC Nanodiscs [1]) [µM] | Fe^3+ Spin shift (fraction of high spin) (CYP3A4 in POPC Nanodiscs [1]; binding intermediate with 1 substrate molecule bound) | Fe^3+ Spin shift (fraction of high spin) (CYP3A4 in POPC Nanodiscs [1]; binding intermediate with 2 substrate molecules bound) | Product formation rate (CYP3A4 in POPC Nanodiscs [2]) | SMILES | Rate of metabolism from the mixed intermediate (CYP3A4 in POPC Nanodiscs [3])
1 | 22 | 1 | 22 [16 – 26] % | 62 [56 – 72] % | 13 [9.6 – 14.7] min^−1 | CC(C)c1c(C(=O)Nc2ccccc2)c(-c2ccccc2)c(-c2ccc(F)cc2)n1CC[C@@H]1C[C@@H](O)CC(=O)O1 [ARVL, atorvastatin lactone] | 31 min⁻¹
2 | 3.6 |  |  |  | 2.5 [1.6 – 3.4] min^−1 | CCCCc1oc2ccc(NS(C)(=O)=O)cc2c1C(=O)c1ccc(OCCCN(CCCC)CCCC)cc1 [DND, dronedarone] | No product of DND metabolism was detected; also recorded: completely inhibited
